Measurements published in patent US8021661B2, “Cripto binding molecules” (Biogen Idec MA Inc., priority 2005, dated 2011).

Tests used:
NCCIT xenograft tumors = assay: Established NCCIT human testicular carcinoma xenografts; assay type: in vivo, athymic nude mice; conditions: cis-platinum 2 mg/kg/injection SC 3×/wk×6; Day 20 to Day 66
Method: Treatments were initiated on Day 15 when the tumors reached a minimum change in size of 100 mg.
One hundred fifty (150) male athymic nude mice (Harlan Sprague Dawley, Madison, Wis.) were started on the study at seven to eight weeks of age. Animals were acclimated to the laboratory for at least five days prior to implantation of the tumor. Housing was in ventilated cage racks, and food and water were allowed ad libitum.
NCCIT cells were obtained from the American Tissue Type Collection (Manassas, Va.). The cell line was passed in vitro 4 times prior to implantation. Cells were grown in vitro in RPMI-1640+10% fetal bovine serum (FBS) media without antibiotics (5% CO2).
An inoculum of 5×10^6 NCCIT cells in 200 L RPMI-1640 without serum (25%) plus Matrigel (75%) was implanted SC into the right flank area on Day 0. Tumor size and body weight measurements were recorded at least twice weekly beginning on Day 6. On Day 15, mice with tumors with a minimum increase in tumor weight of 100 mg and a maximum increase of 244 mg, excluding tumors with non-progressive growth, were randomized to treatment and control groups (see Table 12). […]
Tumor measurements were determined using digital calipers. Body weights and tumor size measurements were recorded on Day 6 and were continued at least twice weekly until the termination of the study. […]

BT-474 xenograft tumors = assay: Established BT-474 human breast tumor xenografts, full-length B3F6.1-DM4; assay type: in vivo, athymic nude mice; conditions: Taxol 25 mg/kg IP q4d×3 starting Day 15
Text: One hundred forty (140) female athymic nude mice (Harlan Sprague Dawley, Madison, Wis.) were started on the study at ten weeks of age. Animals were acclimated to the laboratory for at least five days prior to implantation of the tumor. Housing was in ventilated cage racks, and food and water were allowed ad libitum.
BT-474 tumors were obtained from cryopreserved solid tumor fragments from a serially passaged in vivo donor line established at Biogen Idec (cryo reg #0141, established originally from cells obtained from the […] (Manassas, Va.)). Tumor fragments were removed from cryopreservation and serially passaged SC in vivo for 3 generations in female athymic nude mice prior to implantation for this study. […]
On Day −1, the mice were implanted with BioMedics animal ID chips (Model IMI-1000; Seaford, Del.) SC on the left flank. […] Tumor size and body weight measurements were recorded at least twice weekly beginning on Day 5. When the tumors measured a minimum of 100 mg (Day 15), mice were randomized to treatment and control groups (see Table 10) based on tumor size and excluding tumors with non-progressive growth. […]
Tumor measurements were determined using digital calipers. Body weights and tumor size measurements were recorded on Day 0 and were continued twice weekly until the termination of the study. […]

Calu-6 xenograft tumors = assay: Established Calu-6 human lung xenografts; assay type: in vivo, athymic nude mice; conditions: irinotecan 10 mg/kg on Day 13-14, 17-21, 24-26; Day 20 until Day 45
Method: One hundred sixty (160) female athymic nude mice (Harlan Sprague Dawley, Madison, Wis.) were started on the study at eight to nine weeks of age. Animals were acclimated to the laboratory for at least five days prior to implantation of the tumor. Housing was in ventilated cage racks, and food and water were allowed ad libitum.
Calu-6 cells were obtained from the American Tissue Type Collection (Manassas, Va.). The cell line was passed in vitro 11 times prior to implantation. Cells were grown in vitro in RPMI-1640+10% fetal bovine serum (FBS) media without antibiotics (5% CO2). Bacterial cultures were performed on aliquots of the tumor homogenate preparation that was implanted into the mice.
On Day −1, the mice were implanted SC with BioMedics animal ID chips (Model IMI-1000; Seaford, Del.) subcutaneously on the left flank. An inoculum of 5×10^6 Calu-6 cells in 200 μL RPMI-1640 without serum was implanted SC into the right flank area on Day 0. Tumor size and body weight measurements were recorded at least twice weekly beginning on Day 4. When the tumors measured a minimum of 100 mg, the mice were randomized to treatment and control groups (see Table 13). […]
Tumor measurements were determined using digital calipers. Body weights and tumor size measurements were recorded on Day 4 and were continued twice weekly until the termination of the study. […]

[1] = Size exclusion chromatography of purified antibody; assay type: physicochemical; conditions: purified using only the Protein G column
Method: Antibody was produced and purified using methods described in Example 4 above. […] Reduced and non-reduced purified protein samples were analyzed by SDS-PAGE electrophoresis. Under non-reducing conditions, Form A is expected to migrate as a single 120 kDa homodimer and Form B as a 60 kDa doublet.
Reduced and non-reduced purified protein samples were analyzed by SDS-PAGE electrophoresis. Under these conditions, Form A is expected to migrate as a single 120 kDa homodimer and Form B as a 60 kDa doublet.

In the case of `N.N.[Cl][Pt][Cl]` [Cis-platinum, cisplatin], the “inhibition of tumor growth” value (NCCIT xenograft tumors) is reported as “significant inhibition (P<0.05) of tumor growth from Day 20 to Day 66”.

With `CC(=O)O[C@H]1C(=O)[C@@]2(C)[C@H]([C@H](OC(=O)c3ccccc3)[C@]3(O)C[C@H](OC(=O)[C@H](O)[C@@H](NC(=O)c4ccccc4)c4ccccc4)C(C)=C1C3(C)C)[C@]1(OC(C)=O)CO[C@@H]1C[C@@H]2O` [Taxol, paclitaxel] the “inhibition of tumor growth” value (BT-474 xenograft tumors) was “significant (P<0.05) inhibition of tumor growth from Day 26 to Day 50”.

With `CCc1c2c(nc3ccc(OC(=O)N4CCC(N5CCCCC5)CC4)cc13)-c1cc3c(c(=O)n1C2)COC(=O)[C@]3(O)CC` [Irinotecan, irinotecan] the “inhibition of tumor growth” value (Calu-6 xenograft tumors) was “significant (P<0.001) inhibition of tumor growth”.

B1: chimeric dd-B3F6: CH2 domain-deleted chimeric B3F6 with connecting peptide SEQ ID NO: 5; heavy chain SEQ ID NO: 3, light chain SEQ ID NO: 4 (antibody)
heavy: QVQLQQVGAELVKPGASVKLSCKASGYTFTSYWIHWVKQRPGQGLEWIGENDPSNGRTNYNEKFKNKATLTVDKSSSTAYMHLSSLTSEDSAVYYCSRGPNYFYSMDYWGQGTSVTVSSASTKGPSVFPLAPSSKSTSGGTAALGCLVKDYFPEPVTVSWNSGALTSGVHTFPAVLQSSGLYSLSSVVTVPSSSLGTQTYICNVNHKPSNTKVDKKVEPKSCDKTHTCPPCPEPKSCDTPPPCPRCPAPGGGSSGGGSGGQPREPQVYTLPPSRDELTKNQVSLTCLVKGFYPSDIAVEWESNGQPENNYKTTPPVLDSDGSFFLYSKLTVDKSRWQQGNVFSCSVMHEALHNHYTQKSLSLSPG
light: DFLMTQTPLSLPVSLGDQASISCRSSQSIVHSNGNTYLEWYLQKPGQSPKLLIYKVSNRFSGVPDRFSGSGSGTDFTLKISRVEAEDLGVYYCFQGSHVPLTFGAGTKLELKRTVAAPSVFIFPPSDEQLKSGTASVVCLLNNFYPREAKVQWKVDNALQSGNSQESVTEQDSKDSTYSLSSTLTLSKADYEKHKVYACEVTHQGLSSPVTKSFNRGEC
For B1, the “monomer (size exclusion chromatography)” value [1] was 93-98%.
